The source made the active and inactive calls. The calls are words filed in the database; no cut-off is given here.
Experiments:
[1] = target: T1, Stimulator of interferon genes protein (Mus musculus) (UniProt Q3TBT3); assay: In vivo inhibition of cGAMP-induced STING activation in autoimmune disease female C57BL/6 mouse model assessed as decrease in cGAMP-induced serum INF-beta level at 10 mg/kg, sc pretreated with compound for 2 hrs followed by cGAMP addition and measured after 3 hrs by ELISA; type: functional, organism-based
T1 sequence (whole entry): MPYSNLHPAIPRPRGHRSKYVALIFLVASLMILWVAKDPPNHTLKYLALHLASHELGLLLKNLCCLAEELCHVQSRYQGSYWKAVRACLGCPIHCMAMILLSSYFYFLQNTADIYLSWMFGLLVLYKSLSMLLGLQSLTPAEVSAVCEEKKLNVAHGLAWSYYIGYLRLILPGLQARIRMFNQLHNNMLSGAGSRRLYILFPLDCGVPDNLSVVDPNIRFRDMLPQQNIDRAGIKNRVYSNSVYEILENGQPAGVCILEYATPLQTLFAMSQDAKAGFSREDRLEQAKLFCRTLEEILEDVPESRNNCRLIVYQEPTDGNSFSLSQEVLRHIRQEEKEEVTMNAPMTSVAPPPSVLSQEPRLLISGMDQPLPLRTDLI

[2] = Cytotoxicity against human THP1-Blue ISG cells assessed as inhibition of cell growth at 10 uM incubated for 24 hrs by MTS assay relative to control; type: toxicity, cell-based
[3] = Metabolic stability in human liver microsomes assessed as half life at 10 uM in presence of NADPH by LC-MS/MS analysis; type: ADME, Microsome
[4] = target: T2, Stimulator of interferon genes protein (Homo sapiens, UniProt Q86WV6, G230A/R293Q/R71H); assay: Inhibition of diABZI-induced STING HAQ mutant transfected in human THP1-Blue ISG cells preincubated with compound for 6 hrs followed by diABZI addition and measured after 18 hrs by QUANTI-Blue based microplate reader analysis; type: cell-based
T2 sequence (Q86WV6 whole entry R71H/G230A/R293Q): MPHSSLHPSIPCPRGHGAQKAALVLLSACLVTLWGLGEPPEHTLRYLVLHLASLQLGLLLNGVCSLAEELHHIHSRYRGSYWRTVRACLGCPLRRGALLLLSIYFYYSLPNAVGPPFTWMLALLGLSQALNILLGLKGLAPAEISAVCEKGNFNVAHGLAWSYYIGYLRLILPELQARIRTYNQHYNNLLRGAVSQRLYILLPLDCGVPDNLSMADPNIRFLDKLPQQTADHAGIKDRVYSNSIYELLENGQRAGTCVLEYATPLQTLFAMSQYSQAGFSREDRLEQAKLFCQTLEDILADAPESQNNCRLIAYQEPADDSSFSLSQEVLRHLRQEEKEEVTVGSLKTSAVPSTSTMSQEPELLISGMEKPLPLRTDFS

[5] = target: T1, Stimulator of interferon genes protein (Mus musculus); assay: Inhibition of STING in mouse BMDM cells assessed as inhibition of cGAMP-induced CXCL-10 release at 0.05 to 0.5 uM pretreated with compound for 6 hrs followed by cGAMP addition and measured after 18 hrs by ELISA; type: cell-based; details: dose 0.05-0.5 µM, time 24.0 hrs
[6] = Metabolic stability in human plasma assessed as half life in presence of NADPH by LC-MS/MS analysis; type: ADME, cell-free
[7] = Metabolic stability in mouse liver microsomes assessed as half life at 10 uM in presence of NADPH by LC-MS/MS analysis; type: ADME, Microsome
[8] = target: T2, Stimulator of interferon genes protein; assay: Inhibition of cGAMP-induced STING HAQ mutant transfected in human THP1-Blue ISG cells preincubated with compound for 6 hrs followed by cGAMP addition and measured after 18 hrs by QUANTI-Blue based microplate reader analysis; type: cell-based
[9] = target: T3, Stimulator of interferon genes protein (Mus musculus, UniProt Q3TBT3); assay: Inhibition of cGAMP-induced mouse STING transfected in human THP-1 cells preincubated with compound for 6 hrs followed by cGAMP addition and measured after 18 hrs by QUANTI-Luc based microplate reader analysis; type: cell-based
T3 sequence (Q3TBT3 whole entry): T1 sequence (whole entry)

[10] = target: T1, Stimulator of interferon genes protein (Mus musculus); assay: In vivo inhibition of cGAMP-induced STING activation in autoimmune disease female C57BL/6 mouse model assessed as decrease in cGAMP-induced serum CXCL-10 level at 10 mg/kg, sc pretreated with compound for 2 hrs followed by cGAMP addition and measured after 3 hrs by ELISA; type: functional, organism-based
[11] = target: T4, Stimulator of interferon genes protein (Homo sapiens, UniProt Q86WV6); assay: Inhibition of STING activation in human THP1-Blue ISG cells assessed as decrease in cGAMP-induced IRF3 phosphorylation at 0.1 to 1 uM preincubated with compound for 6 hrs followed by cGAMP addition and measured after 3 hrs by Western blotting analysis; type: cell-based; details: dose 0.1-1 µM, time 9.0 hrs
Target sequence in this assay (Q86WV6 whole entry): as the sequence (Q86WV6 whole entry R71H/G230A/R293Q) above, with H71R, A230G, Q293R counted along it

[12] = target: T4, Stimulator of interferon genes protein; assay: Inhibition of cGAMP-induced STING S154 mutant transfected in human THP-1 cells preincubated with compound for 6 hrs followed by cGAMP addition and measured after 18 hrs by QUANTI-Luc based microplate reader analysis; type: cell-based
Target sequence in this assay (Q86WV6 whole entry, looked up, change not shown): as the sequence (Q86WV6 whole entry R71H/G230A/R293Q) above, with H71R, A230G, Q293R counted along it

[13] = target: T1, Stimulator of interferon genes protein (Mus musculus); assay: Inhibition of STING in mouse BMDM cells assessed as inhibition of cGAMP-induced IFN-beta release at 0.05 to 0.5 uM pretreated with compound for 6 hrs followed by cGAMP addition and measured after 18 hrs by ELISA; type: cell-based; details: dose 0.05-0.5 µM, time 24.0 hrs
[14] = target: T4, Stimulator of interferon genes protein; assay: Inhibition of STING in human THP-1 cells assessed as inhibition of cGAMP-induced IFN-beta release at 0.05 to 0.5 uM pretreated with compound for 6 hrs followed by cGAMP addition and measured after 18 hrs by ELISA; type: cell-based; details: dose 0.05-0.5 µM, time 24.0 hrs
Target sequence in this assay (Q86WV6 whole entry): as the sequence (Q86WV6 whole entry R71H/G230A/R293Q) above, with H71R, A230G, Q293R counted along it

[15] = target: T4, Stimulator of interferon genes protein; assay: Inhibition of STING activation in human THP1-Blue ISG cells assessed as decrease in cGAMP-induced STING phosphorylation at 0.1 to 1 uM preincubated with compound for 6 hrs followed by cGAMP addition and measured after 3 hrs by Western blotting analysis; type: cell-based; details: dose 0.1-1 µM, time 9.0 hrs
Target sequence in this assay (Q86WV6 whole entry): as the sequence (Q86WV6 whole entry R71H/G230A/R293Q) above, with H71R, A230G, Q293R counted along it

[16] = target: T4, Stimulator of interferon genes protein; assay: Inhibition of cGAMP-induced STING R232 mutant transfected human THP-1 cells preincubated with compound for 6 hrs followed by cGAMP addition and measured after 18 hrs by QUANTI-Luc based microplate reader analysis; type: cell-based
Target sequence in this assay (Q86WV6 whole entry, looked up, change not shown): as the sequence (Q86WV6 whole entry R71H/G230A/R293Q) above, with H71R, A230G, Q293R counted along it

[17] = Cmax in mouse at 20 mg/kg, po by LC-MS/MS analysis; type: ADME, organism-based; details: in vivo, read-out: Cmax
[18] = Metabolic stability in mouse plasma assessed as half life in presence of NADPH by LC-MS/MS analysis; type: ADME, cell-free

inhibition [1]	half-life at 10 µM [3] [h]	IC50 [4] [nM]	inhibition [5]	half-life [6] [h]	half-life at 10 µM [7] [h]	IC50 [8] [nM]	IC50 [9] [nM]	inhibition [10]	inhibition [11]	IC50 [12] [nM]	inhibition [13]	inhibition [14]	inhibition [15]	IC50 [16] [nM]	Cmax [17] [nM]	half-life [18] [h]	Structure (SMILES)	inhibition at 24 h, 10 µM [2] [%]
Active	> 1	110	Active	> 4	> 1	100	20	Active	Active	210	Active	Active	Active	30	200		CC(C)(C)c1ccc(N2C(=O)c3ccccc3C(C(N)=O)C2c2cc3cc(-c4ccc(C(=O)Nc5ccc(O)c(NS(C)(=O)=O)c5)cc4)ccc3o2)cc1Cl (stereo not given)	36.5
Active	> 1	80	Active	> 4	> 1	80	30	Active	Active	260	Active	Active	Active	30	200	> 4	COc1ccc2c(c1)C(=O)N(c1ccc(C(C)(C)C)c(Cl)c1)C(c1cc3cc(-c4ccc(C(=O)Nc5ccc(O)c(NS(C)(=O)=O)c5)cc4)ccc3o1)C2C(N)=O (stereo not given)	37.3

Reference: ChEMBL document CHEMBL6182913, “Design of Potent Small-Molecule Stimulator of Interferon Gene Inhibitor and Stimulator of Interferon Gene Mutant-Specific Degrader” (J Med Chem, 2025)
